The results in this text go back to patent publication US20090209550A1, “SUBSTITUTED TRIAZOLOPYRIDINES” (AUSPEX PHARMACEUTICALS, INC., priority 2008, published 2009).

A short description of the series: In vitro liver microsomal stability assay. It is filed as in vitro ADME. The settings on record: '+' marks the bin; human liver microsomes 1 mg per mL protein, NADPH-generating system, 1 μM, 37° C.; compared to non-isotopically enriched drug. The method, then: Liver microsomal stability assays are conducted at 1 mg per mL liver microsome protein with an NADPH-generating system in 2% NaHCO3 (2.2 mM NADPH, 25.6 mM glucose 6-phosphate, 6 units per mL glucose 6-phosphate dehydrogenase and 3.3 mM MgCl2). Test compounds are prepared as solutions in 20% acetonitrile-water and added to the assay mixture (final assay concentration 1 μM) and incubated at 37° C. Final concentration of acetonitrile in the assay should be <1%. Aliquots (50 μL) are taken out at times 0, 0.25, […], and 1 hours, and diluted with ice cold acetonitrile (200 μL) to stop the reactions. Samples are centrifuged at 12,000 RPM for 10 min to precipitate proteins. Supernatants are transferred to micro centrifuge tubes and stored for LC/MS/MS analysis of the degradation half-life of the test compounds.

Each structure is given as a SMILES string. Where a name gives a salt, the structure may show the parent alone.

As for `O=c1n(CCCN2CCN(c3cccc(Cl)c3)CC2)nc2ccccn12` [Example 1, 2-(3-(4-(3-Chlorophenyl)piperazin-1-yl)propyl)-[1,2,4]triazolo[4,3-a]pyridin-3(2H)one, reference compound], the “% increase of HLM degradation half-life, 50%-150%” value was “+ (50%-150%)”.
As for `[2H]C([2H])(CCn1nc2ccccn2c1=O)N1CCN(c2cccc(Cl)c2)CC1` [Example 2, 2-(3-(4-(3-Chlorophenyl)piperazin-1-yl)propyl-3,3-d2)-[1,2,4]triazolo[4,3-a]pyridin-3(2H)one hydrochloride], the “% increase of HLM degradation half-life, >150%” value was “+ (>150%)”.
For `[2H]C([2H])(CCN1CCN(c2cccc(Cl)c2)CC1)n1nc2ccccn2c1=O` [Example 3, 2-(3-(4-(3-Chlorophenyl)piperazin-1-yl)propyl-1,1-d2)-[1,2,4]triazolo[4,3-a]pyridin-3(2H)one hydrochloride], the “% increase of HLM degradation half-life, 0%-50%” value is “+ (0%-50%)”.
Take `[2H]C([2H])(CC([2H])([2H])n1nc2ccccn2c1=O)N1CCN(c2cccc(Cl)c2)CC1` [Example 4, 2-(3-(4-(3-Chlorophenyl)piperazin-1-yl)propyl-1,1,3,3-d4)-[1,2,4]triazolo[4,3-a]pyridin-3(2H)one hydrochloride]: the “% increase of HLM degradation half-life, 0%-50%” value is “+ (0%-50%)”.
The same measure, in the same setting: then `[2H]C([2H])(N1CCN(c2cccc(Cl)c2)CC1)C([2H])([2H])C([2H])([2H])n1nc2ccccn2c1=O` [Example 5, 2-(3-(4-(3-Chlorophenyl)piperazin-1-yl)propyl-1,1,2,2,3,3-d6)-[1,2,4]triazolo[4,3-a]pyridin-3(2H)one hydrochloride], with “+ (0%-50%)”.
